Consider 34 compounds from patent US6288070A, “Triazolopurine derivatives, medicinal composition containing the derivatives, adenosine A3 receptor compatibilizing agent, and asthmatic remedy” (Otsuka Pharmaceutical Factory, Inc., priority 1998, dated 2001).

Structures are written as SMILES. Read-outs that look alike come from different tables or passages of the source.

A word on the IC50: it is the point on the concentration scale where inhibition reaches its midpoint.

One experiment addresses T1, adenosine A1 receptor (Rattus norvegicus, UniProt P25099).
T1 sequence (P25099 1-326): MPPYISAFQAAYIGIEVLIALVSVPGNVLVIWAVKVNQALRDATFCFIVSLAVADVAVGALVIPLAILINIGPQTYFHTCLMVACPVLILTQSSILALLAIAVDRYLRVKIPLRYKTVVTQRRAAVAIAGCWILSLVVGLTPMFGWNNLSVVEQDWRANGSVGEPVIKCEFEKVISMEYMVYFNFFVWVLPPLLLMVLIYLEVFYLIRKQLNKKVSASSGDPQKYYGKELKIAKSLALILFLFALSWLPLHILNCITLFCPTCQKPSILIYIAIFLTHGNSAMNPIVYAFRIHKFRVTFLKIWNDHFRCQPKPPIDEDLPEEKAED
Description: biochemical.

For the next experiment, the target named is T2, adenosine A3 receptor (Homo sapiens, UniProt P0DMS8).
T2 construct: expressed in transfected cells; host or cells: HEK-293
T2 sequence (P0DMS8 1-318): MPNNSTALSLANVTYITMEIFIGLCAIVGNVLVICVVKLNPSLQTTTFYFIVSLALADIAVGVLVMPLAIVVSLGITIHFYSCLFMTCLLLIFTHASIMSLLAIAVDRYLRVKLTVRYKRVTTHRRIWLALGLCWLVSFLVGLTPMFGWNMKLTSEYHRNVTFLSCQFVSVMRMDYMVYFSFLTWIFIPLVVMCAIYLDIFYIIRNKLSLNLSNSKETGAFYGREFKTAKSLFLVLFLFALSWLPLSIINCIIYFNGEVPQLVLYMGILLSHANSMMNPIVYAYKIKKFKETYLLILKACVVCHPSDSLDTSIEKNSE
Kind of experiment: biochemical. Particulars: [125I]AB-MECA, membrane of HEK-293 cells transformed with A3 receptor plasmid, read-out: Receptor binding capacity (IC50) Adenosine A3.

For a further experiment, the target named is T3, adenosine A2 receptor (Rattus norvegicus, UniProt P30543).
T3 construct: from tissue
T3 sequence (P30543 whole entry): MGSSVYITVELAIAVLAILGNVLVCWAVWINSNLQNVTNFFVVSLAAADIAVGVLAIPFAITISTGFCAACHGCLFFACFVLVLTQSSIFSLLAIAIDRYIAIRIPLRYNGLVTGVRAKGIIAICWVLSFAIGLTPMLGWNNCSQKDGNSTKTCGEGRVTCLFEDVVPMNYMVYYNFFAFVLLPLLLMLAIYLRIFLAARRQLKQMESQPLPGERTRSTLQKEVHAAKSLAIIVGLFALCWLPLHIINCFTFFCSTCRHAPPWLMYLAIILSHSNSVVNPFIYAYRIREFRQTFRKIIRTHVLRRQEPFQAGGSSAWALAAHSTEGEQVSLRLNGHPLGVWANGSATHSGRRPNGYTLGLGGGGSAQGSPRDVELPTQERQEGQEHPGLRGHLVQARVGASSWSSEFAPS
Kind of experiment: Adenosine A2 receptor binding capacity.

[1] abbreviates: adenosine A2 receptor, read-out: Receptor binding capacity (IC50) Adenosine A2.

On adenosine A1 receptor, `Cc1nc2[nH]cnc2c2nc(-c3ccccc3)nn12` [Example 1, 5-methyl-8-phenyl-1H-1,2,4-triazolo[5,1-i]purine] registered a 50% inhibitory concentration (IC50) of 101 nM.

In the case of `COc1cc(-c2nc3c4[nH]cnc4nc(C)n3n2)cc(OC)c1OC` [Example 2], the IC50 on adenosine A3 receptor turned out to be 96 nM. As for `Cc1nc2nc[nH]c2c2nc(-c3cccnc3)nn12` [Example 3], the IC50 worked out at 95 nM at adenosine A3 receptor, 3000 nM on adenosine A2 receptor (setting [1]) and 2600 nM on adenosine A1 receptor. With `CCCCc1nc2[nH]cnc2c2nc(-c3ccc(C)cc3)nn12` [Example 5], at adenosine A2 receptor (setting [1]), the IC50 was 184 nM. Turning to `CCCCc1nc2nc[nH]c2c2nc(-c3ccccc3O)nn12` [Example 6], the IC50 at adenosine A3 receptor is less than 1 nM; on adenosine A2 receptor (setting [1]), 247 nM; against adenosine A1 receptor, 178 nM. As for `CCCCc1nc2[nH]cnc2c2nc(-c3cc(OC)c(OC)c(OC)c3)nn12` [Example 12, 5-n-butyl-8-(3,4,5-trimethoxyphenyl)-1H-1,2,4-triazolo[5,1-i]purine], half-maximal inhibition against adenosine A1 receptor (IC50) was put at 1000 nM.

Take `CCCCc1nc2[nH]cnc2c2nc(-c3cccnc3)nn12` [Example 13]: on adenosine A1 receptor, it took 228 nM to reach half-maximal inhibition (IC50).

Compound `CCCCc1nc2[nH]cnc2c2nc(-c3ccco3)nn12` [Example 15] had an IC50 against adenosine A1 receptor of 42 nM. As to `CCCCc1nc2nc[nH]c2c2nc(/C=C/c3ccccc3)nn12` [Example 17], the IC50 at adenosine A3 receptor came to 1.1 nM; on adenosine A2 receptor (setting [1]) it was 723 nM; against adenosine A1 receptor, 1300 nM. With `c1ccc(-c2nc3c4nc[nH]c4nc(-c4ccccc4)n3n2)cc1` [Example 18], at adenosine A1 receptor, the IC50 turned out to be 6.4 nM.

In the case of `COc1cc(-c2nc3c4[nH]cnc4nc(-c4ccccc4)n3n2)cc(OC)c1OC` [Example 19], the values for the IC50 on adenosine A3 receptor, at adenosine A2 receptor (setting [1]) and against adenosine A1 receptor were 1.5 nM, 546 nM and 93 nM, respectively. For the compound `c1ccc(-c2nc3nc[nH]c3c3nc(-c4cccnc4)nn23)cc1` [Example 20], the IC50 at adenosine A3 receptor was found to be 7.4 nM; on adenosine A2 receptor (setting [1]), 31 nM; against adenosine A1 receptor, 21 nM. `CCCc1nc2nc[nH]c2c2nc(-c3ccccc3)nn12` [Example 23]: the IC50 at adenosine A2 receptor (setting [1]) was found to be 115 nM. Still for that read-out and setting: next, `CCCCCc1nc2nc[nH]c2c2nc(-c3ccccc3)nn12` [Example 34, 5-pentyl-8-phenyl-1H-1,2,4-triazolo[5,1-i]purine]: 205 nM. As for `Cc1cccc(-c2nc3nc[nH]c3c3nc(-c4ccccc4)nn23)c1` [Example 35], the IC50 at adenosine A3 receptor is less than 1 nM; at adenosine A2 receptor (setting [1]), 111 nM. Regarding `CCCCCCCc1nc2nc[nH]c2c2nc(-c3ccccc3)nn12` [Example 37], the figures for the IC50 on adenosine A3 receptor and on adenosine A2 receptor (setting [1]) were 9 nM and 3700 nM, respectively.

`CCCCc1nc2[nH]cnc2c2nc(-c3ccc(N(C)C)cc3)nn12` [Example 42]: the IC50 at adenosine A2 receptor (setting [1]) is greater than 10000 nM. With `CCCCc1nc2[nH]cnc2c2nc(-c3ccc(OCCC)cc3)nn12` [Example 45], the half-maximal inhibitory concentration (IC50) at adenosine A2 receptor (setting [1]) was greater than 10000 nM.

As for `CCCCc1nc2nc[nH]c2c2nc(-c3ccc(OCc4ccccc4)cc3)nn12` [Example 49], the values for the IC50 at adenosine A3 receptor and at adenosine A2 receptor (setting [1]) were 1.7 nM and greater than 10000 nM, respectively. Turning to `CCCCc1nc2nc[nH]c2c2nc(-c3ccc(-c4ccccc4)cc3)nn12` [Example 50], the IC50 on adenosine A2 receptor (setting [1]) was greater than 10000 nM. `CCCCc1nc2nc[nH]c2c2nc(-c3ccc(OC)c(OC)c3)nn12` [Example 51]: the IC50 on adenosine A3 receptor was 1.6 nM; at adenosine A2 receptor (setting [1]), greater than 10000 nM.

Consider `CCCCc1nc2nc[nH]c2c2nc(-c3ccc(N(CC)CC)cc3)nn12` [Example 54], for which the IC50 at adenosine A3 receptor is 7.8 nM; on adenosine A2 receptor (setting [1]), greater than 10000 nM. For the compound `CCCCc1nc2nc[nH]c2c2nc(-c3ccc(OC(F)(F)F)cc3)nn12` [Example 58], the IC50 at adenosine A3 receptor was 5.8 nM; on adenosine A2 receptor (setting [1]) it was greater than 10000 nM. Take `CCCCc1nc2[nH]cnc2c2nc(-c3ccc(C(F)(F)F)cc3)nn12` [Example 59]: the IC50 on adenosine A2 receptor (setting [1]) is greater than 10000 nM.

For the compound `CCCCc1nc2nc[nH]c2c2nc(-c3ccc(N(Cc4ccccc4)Cc4ccccc4)cc3)nn12` [Example 60], the IC50 at adenosine A3 receptor is 15 nM; at adenosine A2 receptor (setting [1]), greater than 10000 nM. With `CCCCc1nc2nc[nH]c2c2nc(-c3ccc(NCc4ccccc4)cc3)nn12` [Example 61], the IC50 on adenosine A3 receptor was less than 1 nM; at adenosine A2 receptor (setting [1]), 1800 nM.

With `CCCCc1nc2nc[nH]c2c2nc(-c3ccc(Oc4ccccc4)cc3)nn12` [Example 62], the IC50 at adenosine A3 receptor was 6.6 nM; on adenosine A2 receptor (setting [1]), greater than 10000 nM. In the same order, the values of `CCCCc1nc2nc[nH]c2c2nc(-c3ccc(NC)cc3)nn12` [Example 63] are 1 nM and 2400 nM. On to `CCCCc1nc2nc[nH]c2c2nc(-c3ccc4ccccc4c3)nn12` [Example 64], for which the half-inhibitory concentration (IC50) on adenosine A3 receptor was less than 1 nM; on adenosine A2 receptor (setting [1]), 716 nM.

As for `CCCCc1nc2nc[nH]c2c2nc(-c3ccc(CP(=O)(OCC)OCC)cc3)nn12` [Example 65], the IC50 is 3.7 nM on adenosine A3 receptor and greater than 10000 nM on adenosine A2 receptor. Consider `CCCCc1nc2nc[nH]c2c2nc(-c3ccc(SC)cc3)nn12` [Example 66], for which, at adenosine A2 receptor (setting [1]), the IC50 is greater than 10000 nM. `CCCCc1nc2nc[nH]c2c2nc(-c3ccc(CC)cc3)nn12` [Example 67]: the results for the IC50 at adenosine A3 receptor and on adenosine A2 receptor (setting [1]) were 5.4 nM and 1800 nM, respectively. As for `CCCCc1nc2nc[nH]c2c2nc(-c3ccc(C(C)C)cc3)nn12` [Example 68], the IC50 at adenosine A3 receptor is 5.1 nM; at adenosine A2 receptor (setting [1]), greater than 10000 nM. As to `CCCCc1nc2[nH]cnc2c2nc(-c3ccc(C(C)(C)C)cc3)nn12` [Example 69], the IC50 on adenosine A2 receptor (setting [1]) is greater than 10000 nM.
